# Source: patent publication US20250375414A1, “UROLITHIN COMBINATIONS” (Amazentis SA, priority 2024, published 2025)
# Tests used:
# [1] = system: Interleukin-6 (IL-6) secretion in C2C12 myotubes; assay: IL-6 release from cytomix (CTX)-inflamed C2C12 myotubes (ELISA of culture media); type: cell-based, mouse; conditions: for Impact on the release of IL-6 (significance): FIG. 3
# Experimental: We first studied what is the lowest non-functional dose of Urolithin A in the context of cytokine-mediated muscle cell inflammation. For this, we exposed C2C12 myotubes to increasing doses of Urolithin A within a range of 1.56 uM to […] for 24 hours, and then induced inflammation for an additional 24 hours by applying to cells a mix of pro-inflammatory cytokines (Cytomix, abbreviated CTX). One set of cells were left untreated, indicated by the first bar (CTX−, UA−). One set of cells were treated with CTX but not Urolithin A (second bar, CTX+, UA−). At the end of the study, we measure the concentration of the proinflammatory biomarker Interleukin 6 (IL-6) released in the cell culture media.
# Based on the literature we used concentrations of ERGO at two low doses—potentially non-functional—i.e. 4 uM and 20 uM. […] As for the UA experiment in FIG. 1, we treated C2C12 with ERGO at these […] doses for 24 hours, followed by treatment with CTX for additional 24 hours.
# For this combination experiment, C2C12 were treated without CTX, with CTX alone and with CTX plus either UA alone (6.25 uM), ERGO alone (both 20 uM and 100 uM) and UA plus ERGO 20 uM and UA+ERGO 100 uM.
# C2C12 Myoblasts purchased from the American Type Culture Collection (ATCC; ref. CRL-1772) were seeded at 8000 cells per well in a 96 well plate (Greiner) using a DMEM Glutamax 4.5 g D-glucose (Gibco, ref 31966021) supplemented with FBS 10% (PanBiotech, ref P190902), 1% PenStrep (Biowest, Nuaill6, France) and 1% Hepes (Biowest). Cells were then differentiated for 6 days using a differentiation medium (DMEM Glutamax 4.5 g D-glucose (Gibco, ref 31966021), 2% Horse serum (Thermofisher, ref 160501229) 1% PenStrep and 1% Hepes). All our media were sterilized with a 0.45 μm filter unit (VWR). After 4 days of the differentiation cells were treated for 24 h with 1) Urolithin A (UA), Ergothieoneine (ERGO, MedChem Express HY-N1914) or a combination of the two at the indicated doses. Cytokine mix (“cytomix”) was added at day 5 in addition of the previous treatment for another 24 h, cytokines were respectively used at 5 ng (mIFN-γ (Roche ref.11276905001), TNF-α (Peprotech ref. 300-01A) and IL-β (Proteintech ref. 200-011B)). The medium was collected and an ELISA for Interleukin-6 were performed following the instruction provided by the supplier (Proteintech ref. KE10007). Finally, the absorbance at a wavelength of 450 nm was measured using a microplate plate reader (Fluostar Optima, BMG Labtech).
# [2] = system: IL-6 levels in stressed C2C12 cells; conditions: cited from earlier work
# [3] = system: IL-6 levels in 3T3-L1 cells; conditions: 3T3-L1 cells after stimulation with TNFα; cited from earlier work
# [4] = system: Interleukin-6 (IL-6) secretion in human dermal fibroblasts (nHDF); assay: IL-6 in supernatant of cytokine mix-treated normal human dermal fibroblasts (nHDF) (ELISA); type: cell-based
# Experimental: A dose of 0.025 ng/ml of Cytokines mix was applied to induce inflammation, measured by quantifying the levels of the pro-inflammatory cytokine interleukin 6 (IL-6) in the cell culture supernatant. For the experiment, cells were first pre-treated with either i) urolithin A 2.5 uM, ii) Zinc at 100 uM, iii) a combination of urolithin A 2.5 uM and Zinc 100 uM, iv) or DMSO as control for 24 h. Then cells were co-treated with both CTX and either urolithin A or Zinc alone or in combination, as above. After 24 h, IL-6 was measured in the cell supernatant to assess the ability of Urolithin A and Zinc to reduce Cytokines-induced inflammation.
# Normal Human dermal fibroblasts (nHDF) purchased from Promocell (ref. C-12302) were seeded at 6000 cells per well in a 96 well plate (Greiner) using a DMEM Glutamax 1 g D-glucose (Gibco, ref 21885108) supplemented with FBS 10% (PanBiotech, ref P30-3033), 1% PenStrep (Biowest) and 1% Hepes (Biowest). All media were sterilized with a 0.45 μm filter unit (VWR). The day after the seeded cells were treated for 24 h with 1) Urolithin A (UA) resuspended in DMSO, Zinc gluconate (MedChemExpress Ref. HY-W145499) or a combination of the two at the indicated doses.Cytokine mix (“cytomix”) was added in addition of the previous treatment for another 24 h, cytokines were used equally for a total and final concentration of 0.025 ng/ml (mIFN-g (roche ref.11276905001), TNF-α (Peprotech ref. 300-01A) and IL-b (Proteintech ref. 200-011B)). The medium was collected and an ELISA for Interleukin-6 were performed following the instruction provided by the supplier (Proteintech ref. KE10007). Finally, the absorbance at a wavelength of 450 nm was measured using a microplate plate reader (Fluostar Optima, BMG Labtech). IL-6 data were finally normalized over cell number, calculated with a cell viability assay (Promega, ref. G7571).
compound,measurement,setting,value
"C[N+](C)(C)[C@@H](Cc1c[nH]c(=S)[nH]1)C(=O)[O-] [ERGO, ergothioneine]",Percent change in IL-6 vs CTX alone,"[1]; ERGO 20 uM, 24 h, then CTX further 24 h, C2C12 myotubes",+1.2%
same,Percent change in IL-6 vs CTX alone,"[1]; ERGO 100 uM, 24 h, then CTX further 24 h, C2C12 myotubes",−28%
same,Impact on IL6 (significance),"[1]; ERGO 100 uM, CTX",significant reduction
same,Impact on the release of IL-6 (significance),"[1]; ERGO alone 20 uM, CTX",did not significantly impact
same,Only dose leading to a significant decrease in CTX-induced IL-6 secretion,"[1]; ERGO tested at 4 uM, 20 uM and 100 uM, FIG. 2",100 µM
same,Effect on IL-6 levels,[2],reduce IL-6 levels
same,Effect on IL-6 levels,[3],reduce IL-6 levels
"O=c1oc2cc(O)ccc2c2ccc(O)cc12 [UA, Urolithin A]",% reduction IL-6,"[4]; CTX vs. CTX + UA 2.5 uM, nHDF",−25%
same,First dose at which UA did not exert a significant reduction in IL-6 (sub-functional dose),"[1]; C2C12 myotubes, CTX, FIG. 1",6.25 µM
same,Effect on IL-6 release of CTX inflamed cells,"[1]; UA 1.56 uM to 50 mM, 24 h, then CTX 24 h, FIG. 1",dose dependent decrease
same,Percent change in IL-6 vs CTX alone,"[1]; UA 6.25 uM, 24 h, then cytomix (CTX) further 24 h, C2C12 myotubes",−5.2%
same,Impact on the release of IL-6 (significance),"[1]; UA alone 6.25 uM, CTX",did not significantly impact
Zinc gluconate,% reduction IL-6,"[4]; CTX vs. CTX + Zinc 100 uM, nHDF",−29.6%
same,Relative Change (%) Compared to CTX,"[4]; Zinc 100 uM, CTX 0.025 ng/ml, IL-6 in nHDF supernatant",−29.57%
same,Reduction of CTX-mediated increase of IL-6,"[4]; Zinc 100 uM, nHDF",29.6%
